The target in the test is FXR (Homo sapiens (Human), UniProt Q96RI1). Briefly: transient human FXR/Gal4-luciferase reporter assay. In kind it is cell-based. Conditions: Gal4-hFXR fusion construct, HEK293 reporter cells; response relative to 8 μM GW-4064. On the procedure: A Gal4-hFXR fusion construct reporter system was used as the primary assay to characterize compound activity. A construct including 5 copies of the Gal4 promoter response element upstream of a firefly luciferase reporter cDNA was stably expressed in HEK293 cells. This reporter cell line was maintained in Dulbecco's Modified Eagle's medium (DMEM; Gibco) supplemented with 1% penicillin-streptomycin (P/S) solution, 500 μg/mL Zeocin and 10% charcoal/dextran-treated fetal bovine serum (cs-FBS) at 37° C. in a humidified 5% CO2 atmosphere. Another plasmid was constructed in which the human cytomegalovirus promoter in the pcDNA3.1 vector directs the expression of the cDNA encoding a fusion protein comprised of the DNA binding domain from the Gal4 transcription factor fused to the ligand binding domain from human FXR.
FXR, sequence (Q96RI1 262-486): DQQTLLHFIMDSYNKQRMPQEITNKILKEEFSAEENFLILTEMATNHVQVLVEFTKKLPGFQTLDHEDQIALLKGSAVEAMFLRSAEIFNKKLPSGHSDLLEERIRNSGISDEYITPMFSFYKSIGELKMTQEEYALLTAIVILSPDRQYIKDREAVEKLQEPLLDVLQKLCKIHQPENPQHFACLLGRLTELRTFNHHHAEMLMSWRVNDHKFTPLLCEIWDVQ
The day prior to transfection, the reporter cells in culture are detached from the plate with trypsin and plated into a T75 flask at a sufficient density to achieve approximately 90% confluence the next morning. The transfection reagents are prepared by separately diluting 25 μg of the pcDNA3.1-Gal4-FXR plasmid into 1.87 mL of Opti-MEM (Thermo-Fisher), and 40 μL of Lipofectamine 2000 (Thermo-Fisher) into 1.87 mL of Opti-MEM, and then adding the diluted DNA solution into the diluted Lipofectamine 2000 solution and incubating at room temperature for 15-20 minutes. The mixture is further diluted with 10 mL of a solution comprised of DMEM, 10% cs-FBS, and 1% P/S immediately prior to transferring to the cells. The maintenance culture media is aspirated from the cells and the final transfection mixture is added before the cells are incubated overnight at 37° C. in a humidified 5% CO2 atmosphere. This protocol can be scaled up, and the transiently transfected cells can be cryopreserved in an assay-ready format.
For compound testing, 100 nL of the compounds (serial dilutions in DMSO) are dispensed with an Echo acoustic dispenser (Labcyte) into the wells of a Corning/Costar clear bottom 384-well white plate. The transfected cells are harvested, counted, and diluted such that 10-25,000 cells in 25 μL are plated into each well of the 384-well compound assay plate. The compound-treated cells are incubated overnight at 37° C. in a humidified 5% CO2 atmosphere. The next morning 25 μL of Steady-Glo (Promega) are added to each well of the plate, the mixture is incubated for 15 min. with shaking, and luminescence is measured on an Envision (Perkin Elmer) plate reader.
In general terms: Reporter assays use an easily measured gene product as a stand-in for the process of interest.
The term EC50 denotes the concentration at which the effect is half-maximal. A higher EC50 goes with weaker potency. On to `COc1ncc(-c2cccc(N(CC34CCC(c5nc(C6CC6)no5)(CC3)CC4)C(=O)C34CC(F)(C3)C4)c2)cn1` [Example 248, N-((4-(3-cyclopropyl-1,2,4-oxadiazol-5-yl)bicyclo[2.2.2]octan-1-yl)methyl)-3-fluoro-N-(3-(2-methoxypyrimidin-5-yl)phenyl)bicyclo[1.1.1]pentane-1-carboxamide], for which the midpoint of the response, the EC50, lay at 154 nM. In turn, `COc1ccc(-c2cccc(N(CC34CCC(c5nc(C6CC6)no5)(CC3)CC4)C(=O)C34CC(F)(C3)C4)c2)cn1` [Example 249, N-((4-(3-cyclopropyl-1,2,4-oxadiazol-5-yl)bicyclo[2.2.2]octan-1-yl)methyl)-3-fluoro-N-(3-(6-methoxypyridin-3-yl)phenyl)bicyclo[1.1.1]pentane-1-carboxamide] displayed an EC50 of 153 nM.

As for `O=C(N(CC12CCC(c3nc(C4CC4)no3)(CC1)CC2)c1cccc(-c2cc(Cl)cc(Cl)c2)c1)C12CC(F)(C1)C2` [Example 250, N-((4-(3-cyclopropyl-1,2,4-oxadiazol-5-yl)bicyclo[2.2.2]octan-1-yl)methyl)-N-(3′,5′-dichloro-[1,1′-biphenyl]-3-yl)-3-fluorobicyclo[1.1.1]pentane-1-carboxamide], the EC50 amounted to 778 nM. In the case of `O=C(N(CC12CCC(c3nc(C4CC4)no3)(CC1)CC2)c1cccc(-c2ccc(OC(F)(F)F)cc2)c1)C12CC(F)(C1)C2` [Example 251, N-((4-(3-cyclopropyl-1,2,4-oxadiazol-5-yl)bicyclo[2.2.2]octan-1-yl)methyl)-3-fluoro-N-(4′-(trifluoromethoxy)-[1,1′-biphenyl]-3-yl)bicyclo[1.1.1]pentane-1-carboxamide], the EC50 turned out to be 277 nM. For the compound `O=C(N(CC12CCC(c3nc(C4CC4)no3)(CC1)CC2)c1cccc(-c2cccc(C(F)(F)F)c2)c1)C12CC(F)(C1)C2` [Example 252, N-((4-(3-cyclopropyl-1,2,4-oxadiazol-5-yl)bicyclo[2.2.2]octan-1-yl)methyl)-3-fluoro-N-(3′-(trifluoromethyl)-[1,1′-biphenyl]-3-yl)bicyclo[1.1.1]pentane-1-carboxamide], the response was half-maximal at 833 nM (EC50).

Consider `O=C(N(CC12CCC(c3nc(C4CC4)no3)(CC1)CC2)c1cccc(-c2ccc(C(F)(F)F)cc2)c1)C12CC(F)(C1)C2` [Example 253, N-((4-(3-cyclopropyl-1,2,4-oxadiazol-5-yl)bicyclo[2.2.2]octan-1-yl)methyl)-3-fluoro-N-(4′-(trifluoromethyl)-[1,1′-biphenyl]-3-yl)bicyclo[1.1.1]pentane-1-carboxamide], for which the EC50 is 250 nM.

Turning to `CC(=O)Nc1cccc(-c2cccc(N(CC34CCC(c5nc(C6CC6)no5)(CC3)CC4)C(=O)C34CC(F)(C3)C4)c2)c1` [Example 254, N-(3′-acetamido-[1,1′-biphenyl]-3-yl)-N-((4-(3-cyclopropyl-1,2,4-oxadiazol-5-yl)bicyclo[2.2.2]octan-1-yl)methyl)-3-fluorobicyclo[1.1.1]pentane-1-carboxamide], it took 241 nM to reach a half-maximal effect (EC50). For `O=C(N(CC12CCC(c3nc(C4CC4)no3)(CC1)CC2)c1cccc(-c2ccc3c(c2)OCO3)c1)C12CC(F)(C1)C2` [Example 255, N-(3-(benzo[d][1,3]dioxol-5-yl)phenyl)-N-((4-(3-cyclopropyl-1,2,4-oxadiazol-5-yl)bicyclo[2.2.2]octan-1-yl)methyl)-3-fluorobicyclo[1.1.1]pentane-1-carboxamide], a half-maximal effect (EC50) was put at 69.8 nM. `CS(=O)(=O)Nc1cccc(-c2cccc(N(CC34CCC(c5nc(C6CC6)no5)(CC3)CC4)C(=O)C34CC(F)(C3)C4)c2)c1` [Example 256, N-((4-(3-cyclopropyl-1,2,4-oxadiazol-5-yl)bicyclo[2.2.2]octan-1-yl)methyl)-3-fluoro-N-(3′-(methylsulfonamido)-[1,1′-biphenyl]-3-yl)bicyclo[1.1.1]pentane-1-carboxamide] yielded an EC50 of 219 nM. Regarding `NS(=O)(=O)c1cccc(-c2cccc(N(CC34CCC(c5nc(C6CC6)no5)(CC3)CC4)C(=O)C34CC(F)(C3)C4)c2)c1` [Example 257, N-((4-(3-cyclopropyl-1,2,4-oxadiazol-5-yl)bicyclo[2.2.2]octan-1-yl)methyl)-3-fluoro-N-(3′-sulfamoyl-[1,1′-biphenyl]-3-yl)bicyclo[1.1.1]pentane-1-carboxamide], the EC50 was 521 nM.

As to `N#Cc1cccc(-c2cccc(N(CC34CCC(c5nc(C6CC6)no5)(CC3)CC4)C(=O)C34CC(F)(C3)C4)c2)c1` [Example 258, N-(3′-cyano-[1,1′-biphenyl]-3-yl)-N-((4-(3-cyclopropyl-1,2,4-oxadiazol-5-yl)bicyclo[2.2.2]octan-1-yl)methyl)-3-fluorobicyclo[1.1.1]pentane-1-carboxamide], the EC50 turned out to be 479 nM.

In turn, `O=C(N(CC12CCC(c3nc(C4CC4)no3)(CC1)CC2)c1cccc(-c2cccc(OC(F)(F)F)c2)c1)C12CC(F)(C1)C2` [Example 259, N-((4-(3-cyclopropyl-1,2,4-oxadiazol-5-yl)bicyclo[2.2.2]octan-1-yl)methyl)-3-fluoro-N-(3′-(trifluoromethoxy)-[1,1′-biphenyl]-3-yl)bicyclo[1.1.1]pentane-1-carboxamide] returned an EC50 of 268 nM.

Turning to `COc1cc(-c2cccc(N(CC34CCC(c5nc(C6CC6)no5)(CC3)CC4)C(=O)C34CC(F)(C3)C4)c2)ccc1F` [Example 260, N-((4-(3-cyclopropyl-1,2,4-oxadiazol-5-yl)bicyclo[2.2.2]octan-1-yl)methyl)-3-fluoro-N-(4′-fluoro-3′-methoxy-[1,1′-biphenyl]-3-yl)bicyclo[1.1.1]pentane-1-carboxamide], the EC50 was found to be 693 nM. The compound `O=C(N(CC12CCC(c3nc(C4CC4)no3)(CC1)CC2)c1cccc(-c2ccc3[nH]c(=O)oc3c2)c1)C12CC(F)(C1)C2` [Example 261, N-((4-(3-cyclopropyl-1,2,4-oxadiazol-5-yl)bicyclo[2.2.2]octan-1-yl)methyl)-3-fluoro-N-(3-(2-oxo-2,3-dihydrobenzo[d]oxazol-6-yl)phenyl)bicyclo[1.1.1]pentane-1-carboxamide] gave an EC50 of 48 nM. In the case of `O=C(N(CC12CCC(c3nc(C4CC4)no3)(CC1)CC2)c1cccc(-c2cnc(C(F)(F)F)nc2)c1)C12CC(F)(C1)C2` [Example 262, N-((4-(3-cyclopropyl-1,2,4-oxadiazol-5-yl)bicyclo[2.2.2]octan-1-yl)methyl)-3-fluoro-N-(3-(2-(trifluoromethyl)pyrimidin-5-yl)phenyl)bicyclo[1.1.1]pentane-1-carboxamide], the EC50 came out at 140 nM. `O=C(N(CC12CCC(c3nc(C4CC4)no3)(CC1)CC2)c1cccc(-c2cc(C(F)(F)F)c3ncnn3c2)c1)C12CC(F)(C1)C2` [Example 263, N-((4-(3-cyclopropyl-1,2,4-oxadiazol-5-yl)bicyclo[2.2.2]octan-1-yl)methyl)-3-fluoro-N-(3-(8-(trifluoromethyl)-[1,2,4]triazolo[1,5-a]pyridin-6-yl)phenyl)bicyclo[1.1.1]pentane-1-carboxamide] gave an EC50 of 2710 nM. Compound `COc1cc(-c2cccc(N(CC34CCC(c5nc(C6CC6)no5)(CC3)CC4)C(=O)C34CC(F)(C3)C4)c2)cn2ncnc12` [Example 264, N-((4-(3-cyclopropyl-1,2,4-oxadiazol-5-yl)bicyclo[2.2.2]octan-1-yl)methyl)-3-fluoro-N-(3-(8-methoxy-[1,2,4]triazolo[1,5-a]pyridin-6-yl)phenyl)bicyclo[1.1.1]pentane-1-carboxamide] had an EC50 of 1500 nM. Compound `Cc1nc2c(C)cc(-c3cccc(N(CC45CCC(c6nc(C7CC7)no6)(CC4)CC5)C(=O)C45CC(F)(C4)C5)c3)cn2n1` [Example 265, N-((4-(3-cyclopropyl-1,2,4-oxadiazol-5-yl)bicyclo[2.2.2]octan-1-yl)methyl)-N-(3-(2,8-dimethyl-[1,2,4]triazolo[1,5-a]pyridin-6-yl)phenyl)-3-fluorobicyclo[1.1.1]pentane-1-carboxamide] registered a 50% effective concentration (EC50) of 510 nM. `Cc1cc(-c2cccc(N(CC34CCC(c5nc(C6CC6)no5)(CC3)CC4)C(=O)C34CC(F)(C3)C4)c2)cn2ncnc12` [Example 266, N-((4-(3-cyclopropyl-1,2,4-oxadiazol-5-yl)bicyclo[2.2.2]octan-1-yl)methyl)-3-fluoro-N-(3-(8-methyl-[1,2,4]triazolo[1,5-a]pyridin-6-yl)phenyl)bicyclo[1.1.1]pentane-1-carboxamide] showed an EC50 of 691 nM.

For the origin of these results see patent US11254663B2 (BRISTOL-MYERS SQUIBB COMPANY, priority 2019, dated 2022).
